According to US20140283155A1, “REPRESSIBLE LETHAL SYSTEM FOR REGULATING INSECT POPULATIONS” (California Institute of Technology, priority 2013, published 2014):

Tested on: Drosophila melanogater
Experiment: Evaluation of VanDal system in biological control (in vivo functionality, survival of transgenic lines and progeny)
Conditions: diet supplemented with a low dose vanillic acid
Excerpt: To engineer a dominant vanillic acid-repressible lethal system (VanDal system), a plasmid was constructed, in which the C-terminus of VanR was fused with the Herpes simplex virus transactivation domain VP16, generating a chimeric transcription factor (vanRTF) (as descried in Hagmann et al., 1997). The chimeric transcription factor VanR^TF was driven at high levels, in a ubiquitous pattern, using a baculovirus immediate early (iel) promoter separated by a baculovirus enhancer (hr5) (as described in Bossin et al., 2007). On the same plasmid, but facing in the opposite direction, VanO operator sequences were placed upstream of the P_hsp70^min promoter (as described in Amin et al., 1987), and the P_hsp70^min promoter drove the expression of toxin VP16. The vanillic acid-repressible lethal system resides in a single piggyback transposable element that also includes a positive selection marker gene, (Opie2-dsRed), to facilitate the identification of transgenic insects.
In this example, in vivo functionality of the VanDal system prepared according to the general procedure of Example 1 was evaluated in Drosophila melanogater, an insect model organism. […] To simulate a release into the wild, two crosses in the absence of vanillic acid were set up: 1) homozygous VanDal males mated separately to wildtype virgin females and 2) homozygous Vandal females mated separately to wildype males.

With `COc1cc(C(=O)O)ccc1O` [vanillic acid, 4-hydroxy-3-methoxybenzoic acid] the “survival of transgenic VanDal lines” value was “only survive when fed a diet supplemented with a low dose vanillic acid”.
